Experimental data: patent US10273218B2, “BCL-3 inhibitors” (University College Cardiff Consultants Limited, priority 2014, dated 2019)

Test system: NF-κB activity in MDA-MB-231 cells
Experiment: NF-kB luciferase assay, EGF-induced NF-kB activity
Type: cell-based, human
Settings: 1 micromolar, 20 hours, then 100 ng/ml EGF for 3 hours
Protocol: MDA-MB-231 is a highly metastatic, human basal epithelial cell line isolated from the pleural effusion of an adenocarcinoma. The cells are ‘triple negative’ as they lack estrogen, progesterone and ERBB2 receptor and they strongly over-express EGFR. The expression of receptors in this line has been confirmed by the host laboratory.
For NF-κB luciferase assays, cells are seeded into clear bottom black 96-well plates (Corning Inc., Lowell, US) in antibiotic free culture media in appropriate density. After about 20-24 hrs, cells are transfected with 10 ng of 3×κB luciferase plasmid and 10 ng of pcDNA3.1-Lacl plasmid per well. […]
After 48 hrs post-transfection with luciferase reporter plasmid, the media is aspirated and cells are lyzed using 50 μl/well of Glo-lysis buffer (Promega, Southampton, UK). […] Subsequently, 30 μl/well of Bright-Glo luciferase substrate (Promega, Southampton, UK) is added to the original plate and is assayed immediately for luminescence activity. The luminescence produced from either reaction is read using a Fluorostar Optima plate reader (BMG tabtech, Bucks, UK). […]
After 48 hrs post-transfection with luciferase reporter plasmid, the media was aspirated and cells were lyzed using 50 μl/well of Glo-lysis buffer (Promega, Southampton, UK). […] The luminescence produced from either reaction was read using a Flurostar Optima plate reader (BMG tabtech, Bucks, UK). […]

COc1ccc(C(=O)Nc2ccccc2C(=O)NCCN2CCOCC2)c(F)c1 [Compound 12, 2-fluoro-4-methoxy-N-(2-((2-morpholinoethyl)carbamoyl)phenyl) benzamide]
greater suppression of NF-kB activity as compared to reference compound A: 25% | suppression of EGF induced NF-kB activity (MDA-MB-231 NF-kB promoter luciferase reporter): 100%
